Results as given in patent US12077531B2, “Imidazopyridinone compound” (KISSEI PHARMACEUTICAL CO., LTD., priority 2018, dated 2024).
Where a name gives a salt, the structure may show the parent alone.

Each compound was assayed against human PHD2184-418 (Homo sapiens (Human), UniProt Q9GZT9) (assay: PHD2 inhibitory test (fluorescence polarization, binding between PHD2 and HIF-1α)). Settings: human PHD2184-418, FITC-labeled HIF-1α556-574, 2 μM 2-oxoglutarate, 37° C. 60 minutes.
Protocol: Test Example 1 PHD2 Inhibitory Test
(1) Expression and Preparation of Human PHD2184-418
Human PHD2184-418 containing amino acid residues 184 to 418 of the protein represented by CAC42509 (GenBank accession ID) was expressed and prepared by the following method.
An expression construct of human PHD2184-418 containing N-terminal histidine tag was introduced into pET-30a (+) vector, and the sequence was confirmed. This vector was introduced into BL21 (DE3) strain and cultured at 37° C. in LB medium containing antibiotics. After culturing, a cell lysis solution was added to the cells, and then the cells were disrupted by sonication. The disrupted suspension was centrifuged and the supernatant was purified by Ni column to give human PHD2184-418.
Human HIF-1α556-574 (FITC-labeled HIF-1α556-574), containing N-terminal FITC-Ahx, containing amino acid residues 556 to 574 (partial peptide) of HIF-1α was used as a substrate. Using FITC-labeled HIF-1α556-574, the competitive inhibition between 2-oxoglutarate and test compounds (PHD inhibitor) was evaluated based on the change in fluorescence polarization by the following method.
An enzyme (human PHD2184-418) and the substrate were diluted with an assay buffer (pH 7.4) containing 10 mM HEPES, 150 mM NaCl, 10 μM MnCl2-4H2O, 2 μM 2-oxoglutarate and 0.05% Tween-20. Test compounds were diluted with DMSO. Test compounds and human PHD2184-418 was added to the 384-well plate (Corning, black, opaque bottom) in advance. The reaction was started by the addition of FITC-labeled HIF-1α556-574. After incubating at 37° C. for 60 minutes, fluorescence polarization (excitation wavelength: 470 nm, fluorescence wavelength: 530 nm) was measured by PHERAstar FSX (BMG Labtech). Fluorescence polarization of each well was measured, and human PHD2 binding inhibitory activity of test compounds was calculated based on the value of test compound-free group.

Chain of human PHD2184-418 (Q9GZT9 184-418): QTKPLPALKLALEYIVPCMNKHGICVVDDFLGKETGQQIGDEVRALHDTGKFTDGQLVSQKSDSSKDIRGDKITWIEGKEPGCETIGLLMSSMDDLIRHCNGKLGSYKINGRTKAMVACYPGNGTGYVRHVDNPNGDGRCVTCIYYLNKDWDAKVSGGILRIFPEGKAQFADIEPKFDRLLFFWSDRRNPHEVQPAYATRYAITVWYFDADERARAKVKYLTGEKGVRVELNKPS

SMILES | IC50 [µM]
Cc1cccnc1CN1CC[C@H](n2c(=O)n(-c3ccc(-c4ccccc4)cc3)c3cccnc32)C1 [Example 1, (S)-1-([1,1′-Biphenyl]-4-yl)-3-(1-((3-methylpyridin-2-yl)methyl)pyrrolidin-3-yl)-1,3-dihydro-2H-imidazo[4,5-b]pyridin-2-one] | 8.43
Cn1ccnc1CN1CC[C@H](n2c(=O)n(-c3ccc(-c4ccccc4)cc3)c3cccnc32)C1 [Example 2, (S)-1-([1,1′-biphenyl]-4-yl)-3-(1-((1-methyl-1H-imidazol-2-yl)methyl)pyrrolidin-3-yl)-1,3-dihydro-2H-imidazo[4,5-b]pyridin-2-one] | 0.79
Cn1ccnc1CN1CC[C@@H](n2c(=O)n(-c3ccc(-c4ccccc4)cc3)c3cccnc32)C1 [Example 3, (R)-1-([1,1′-Biphenyl]-4-yl)-3-(1-((1-methyl-1H-imidazol-2-yl)methyl)pyrrolidin-3-yl)-1,3-dihydro-2H-imidazo[4,5-b]pyridin-2-one] | 3.9
O=c1n(-c2ccc(-c3ccccc3)cc2)c2cccnc2n1[C@H]1CCN(Cc2ccccn2)C1 [Example 4, (S)-1-([1,1′-Biphenyl]-4-yl)-3-(1-(pyridin-2-ylmethyl)pyrrolidin-3-yl)-1,3-dihydro-2H-imidazo[4,5-b]pyridin-2-one] | 3.45
O=c1n(-c2ccc(-c3ccccc3)cc2)c2cccnc2n1[C@H]1CCN(Cc2c[nH]cn2)C1 [Example 5, (S)-3-(1-((1H-Imidazol-4-yl)methyl)pyrrolidin-3-yl)-1-([1,1′-biphenyl]-4-yl)-1,3-dihydro-2H-imidazo[4,5-b]pyridin-2-one] | 2.98
O=c1n(-c2ccc(-c3ccccc3)cc2)c2cccnc2n1[C@H]1CCN(Cc2ncc[nH]2)C1 [Example 7, (S)-3-(1-((1H-Imidazol-2-yl)methyl)pyrrolidin-3-yl)-1-([1,1′-biphenyl]-4-yl)-1,3-dihydro-2H-imidazo[4,5-b]pyridin-2-one] | 15.6
O=c1n(-c2ccc(-c3ccccc3)cc2)c2cccnc2n1[C@H]1CCN(Cc2ccc(O)cn2)C1 [Example 9, (S)-1-([1,1′-Biphenyl]-4-yl)-3-(1-((5-hydroxypyridin-2-yl)methyl)pyrrolidin-3-yl)-1,3-dihydro-2H-imidazo[4,5-b]pyridin-2-one] | 8.03
O=c1n(-c2ccc(-c3ccccc3)cc2)c2cccnc2n1[C@H]1CCN(Cc2cc(O)ccn2)C1 [Example 10, (S)-1-([1,1′-Biphenyl]-4-yl)-3-(1-((4-hydroxypyridin-2-yl)methyl)pyrrolidin-3-yl)-1,3-dihydro-2H-imidazo[4,5-b]pyridin-2-one] | 5.49
Cn1ccnc1CN1CC[C@H](n2c(=O)n(-c3ccccc3)c3cccnc32)C1 [Example 11, (S)-3-(1-((1-Methyl-1H-imidazol-2-yl)methyl)pyrrolidin-3-yl)-1-phenyl-1,3-dihydro-2H-imidazo[4,5-b]pyridin-2-one hydrochloride] | 85.4
Cn1ccnc1CN1CCC(n2c(=O)n(-c3ccc(-c4ccccc4)cc3)c3cccnc32)CC1 [Example 12, 1-([1,1′-Biphenyl]-4-yl)-3-(1-((1-methyl-1H-imidazol-2-yl)methyl)piperidin-4-yl)-1,3-dihydro-2H-imidazo[4,5-b]pyridin-2-one] | 4.95

Same assay, conditions: read-out: inhibition rate at the compound concentration of 100 μM (numerals with *); compound concentration 100 μM

SMILES | inhibition at 100 µM [%]
Cn1cnc(CN2CC[C@H](n3c(=O)n(-c4ccc(-c5ccccc5)cc4)c4cccnc43)C2)c1 [Example 6, (S)-1-([1,1′-Biphenyl]-4-yl)-3-(1-((1-methyl-1H-imidazol-4-yl)methyl)pyrrolidin-3-yl)-1,3-dihydro-2H-imidazo[4,5-b]pyridin-2-one hydrochloride] | 34
O=c1n(-c2ccc(-c3ccccc3)cc2)c2cccnc2n1[C@H]1CCN(Cc2ncccc2O)C1 [Example 8, (S)-1-([1,1′-Biphenyl]-4-yl)-3-(1-((3-hydroxypyridin-2-yl)methyl)pyrrolidin-3-yl)-1,3-dihydro-2H-imidazo[4,5-b]pyridin-2-one] | 29
